{"source": "paper PMC5477230", "about": "(Nature chemical biology, 2016)", "key": {"[1]": {"tested_on": "RAW 264.7 cells", "assay": "LDH cytotoxicity assay, RAW 264.7", "conditions": "for effect on cumulative Val-boroPro-induced LDH release: RAW 264.7, 24 hours; for blockade of Val-boroPro-induced pyroptosis: RAW 264.7 macrophages, 50 μM, 30 min pre-treatment, 6 h; for LDH release: RAW 264.7"}, "[2]": {"tested_on": "THP-1 macrophages", "conditions": "for blockade of Val-boroPro-induced pyroptosis: THP-1 macrophages, 50 μM, 30 min pre-treatment, 6 h; for LDH release: wild-type THP-1 cells"}, "[3]": {"tested_on": "control THP-1 cells", "assay": "CellTiter-Glo cell viability, control THP-1", "assay_type": "cell-based", "conditions": "read-out: IC50 cell viability (CellTiter-Glo)"}, "[4]": {"tested_on": "wild-type mice", "assay": "Cytokine stimulation in wild-type mice", "assay_type": "in vivo", "conditions": "oral, Val-boroPro 100 μg/mouse, sitagliptin 1000 μg/mouse"}, "[5]": {"tested_on": "HL-60 cells", "assay": "LDH cytotoxicity assay, HL-60"}, "[6]": {"tested_on": "primary human peripheral blood mononuclear cells (hPBMCs)", "assay": "LDH cytotoxicity assay, hPBMCs"}, "[7]": {"tested_on": "Caspase-1 knockout THP-1 cells", "assay": "LDH cytotoxicity assay, caspase-1 knockout THP-1", "assay_type": "cell-based"}, "[8]": {"tested_on": "DPP4", "conditions": "cited from earlier work"}, "[9]": {"tested_on": "U937 cells", "assay": "LDH cytotoxicity assay, U937"}, "[10]": {"tested_on": "J774 cells", "assay": "LDH cytotoxicity assay, J774"}, "[11]": {"tested_on": "ASC-knockout THP-1 cells", "assay_type": "cell-based"}, "[12]": {"tested_on": "DPP7", "conditions": "cited from earlier work"}, "[13]": {"tested_on": "DPP8/9 double knockout THP-1 cells", "assay": "LDH cytotoxicity assay, DPP8/9 double knockout THP-1", "assay_type": "cell-based"}, "[14]": {"tested_on": "GSDMD knockout THP-1 cells", "assay": "LDH cytotoxicity assay, GSDMD knockout THP-1", "assay_type": "cell-based"}, "[15]": {"tested_on": "primary mouse bone marrow derived macrophages (mBMDMs)", "assay": "LDH cytotoxicity assay, mBMDMs"}, "[16]": {"tested_on": "caspase-1 knockout RAW 264.7 cells", "assay": "Cell viability, caspase-1 knockout RAW 264.7", "assay_type": "cell-based, mouse", "conditions": "for cell killing: caspase-1 knockout RAW 264.7"}, "[17]": {"tested_on": "GSDMD", "assay": "GSDMD cleavage by immunoblotting", "assay_type": "cell-based", "conditions": "THP-1 cells, 24 h"}, "[18]": {"tested_on": "DPP9 knockout THP-1 cells", "assay": "LDH cytotoxicity assay, DPP9 knockout THP-1", "assay_type": "cell-based"}, "[19]": {"tested_on": "Casp1−/− knockout C57BL/6NJ mice", "assay": "Cytokine stimulation in Casp1−/− knockout mice", "assay_type": "in vivo", "conditions": "100 μg/mouse, 6 h"}, "[20]": {"biological_target": "SCPEP1 (Homo sapiens, UniProt Q9HB40)", "sequence (Q9HB40 27-452, species assumed)": "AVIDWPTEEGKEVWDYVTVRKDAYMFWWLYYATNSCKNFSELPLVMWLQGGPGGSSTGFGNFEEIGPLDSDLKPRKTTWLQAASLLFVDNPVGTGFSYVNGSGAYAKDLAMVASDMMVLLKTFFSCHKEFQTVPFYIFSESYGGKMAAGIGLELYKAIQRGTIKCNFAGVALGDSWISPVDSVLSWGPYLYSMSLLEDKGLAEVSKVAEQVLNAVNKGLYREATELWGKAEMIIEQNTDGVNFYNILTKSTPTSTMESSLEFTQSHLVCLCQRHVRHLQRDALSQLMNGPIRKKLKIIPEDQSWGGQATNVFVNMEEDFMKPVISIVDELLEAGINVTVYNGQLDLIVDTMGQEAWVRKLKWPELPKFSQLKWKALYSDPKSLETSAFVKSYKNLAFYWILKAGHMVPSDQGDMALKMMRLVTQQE", "assay": "EnPlex serine hydrolase selectivity profiling", "assay_type": "biochemical", "conditions": "10 μM; EnPlex and competitive ABPP"}, "[21]": {"tested_on": "THP-1 macrophages", "assay": "IL-1β expression by immunoblotting", "conditions": "10 μM"}, "[22]": {"tested_on": "DPP8/9 knockout THP-1 cells", "assay": "CellTiter-Glo cell viability, DPP8/9 knockout THP-1", "assay_type": "cell-based", "conditions": "read-out: IC50 cell viability (CellTiter-Glo); DPP8/9 KO1 THP-1, 48 h"}, "[23]": {"tested_on": "MCF7 cells", "assay": "CellTiter-Glo cell viability, MCF7", "assay_type": "cell-based", "conditions": "MCF7, 48 h"}, "[24]": {"tested_on": "DPP8", "conditions": "read-out: IC50 DPP8; cited from earlier work"}, "[25]": {"tested_on": "HT-1080 cells", "assay": "CellTiter-Glo cell viability, HT-1080", "assay_type": "cell-based", "conditions": "HT-1080, 48 h"}, "[26]": {"tested_on": "J774 cells", "conditions": "cited from earlier work"}, "[27]": {"tested_on": "rats", "conditions": "cited from earlier work"}, "[28]": {"tested_on": "DPP9", "conditions": "read-out: IC50 DPP9; cited from earlier work"}, "[29]": {"tested_on": "CASP1 knockout THP-1 cells", "assay": "CellTiter-Glo cell viability, CASP1 knockout THP-1", "assay_type": "cell-based", "conditions": "CASP1 knockout THP-1, 48 h, compared to DMSO"}, "[30]": {"tested_on": "U937 cells and monocyte-derived macrophages", "conditions": "8 μM; cited from earlier work"}}, "note": "Entries after “also recorded” stand apart in the source; their conditions may differ. Like-named read-outs stand apart in the source and are kept apart here. * marks the point of attachment. Cbz = O=C(OCc1ccccc1)*; CH2F = FC*"}
{"compound": "Cbz-Val-Ala-Asp-CH2F", "values": [{"measurement": "effect on cumulative Val-boroPro-induced LDH release", "setting": "[1]", "result": "only partially reduced"}, {"measurement": "blockade of Val-boroPro-induced pyroptosis", "setting": "[1]", "result": "completely blocked"}, {"measurement": "blockade of Val-boroPro-induced pyroptosis", "setting": "[2]", "result": "completely blocked"}]}
{"compound": "Ac-YVAD-CMK", "values": [{"measurement": "effect on cumulative Val-boroPro-induced LDH release", "setting": "[1]", "result": "no impact"}, {"measurement": "blockade of Val-boroPro-induced pyroptosis", "setting": "[1]", "result": "completely blocked"}, {"measurement": "effect on cumulative Val-boroPro-induced LDH release", "setting": "[2]; THP-1, over 24 hours", "result": "no impact"}, {"measurement": "blockade of Val-boroPro-induced pyroptosis", "setting": "[2]", "result": "completely blocked"}]}
{"compound": "N#C[C@@H]1C[C@@H]2C[C@@H]2N1C(=O)[C@@H](N)C12CC3CC(CC(O)(C3)C1)C2", "note": "[saxagliptin]", "values": [{"measurement": "IC50", "setting": "[3]; Homo sapiens, THP-1, 48 h", "result": "2500 to 18700", "unit": "nM"}]}
{"compound": "CC(C)[C@H](N)C(=O)N1CCC[C@H]1B(O)O", "note": "[Val-boroPro]", "values": [{"measurement": "serum CXCL1/KC induction", "setting": "[4]", "result": "dramatically induces"}, {"measurement": "serum G-CSF induction", "setting": "[4]", "result": "dramatically induces"}, {"measurement": "LDH release", "setting": "[5]", "result": "released LDH"}, {"measurement": "LDH release", "setting": "[6]", "result": "released LDH"}, {"measurement": "sensitivity of cells to compound (LDH)", "setting": "[7]", "result": "resistant"}, {"measurement": "LDH release", "setting": "[1]", "result": "released LDH; also recorded: induced similar LDH release"}, {"measurement": "IC50", "setting": "[8]; read-out: IC50 DPP4", "result": "[…]"}, {"measurement": "LDH release", "setting": "[9]", "result": "do not release LDH"}, {"measurement": "LDH release", "setting": "[10]", "result": "released LDH"}, {"measurement": "cytotoxic response (LDH)", "setting": "[11]", "result": "responded equivalently"}, {"measurement": "inhibition of DPP7", "setting": "[12]; relative to DPP4, DPP8, DPP9", "result": "more weakly inhibit"}, {"measurement": "LDH release", "setting": "[2]", "result": "induced similar LDH release"}, {"measurement": "additional LDH increase", "setting": "[13]", "result": "no additional LDH increase"}, {"measurement": "onset of induced cell death", "setting": "[14]", "result": "significantly delayed"}, {"measurement": "LDH release", "setting": "[15]", "result": "released LDH"}, {"measurement": "cell killing", "setting": "[16]", "result": "resistant"}, {"measurement": "GSDMD cleavage", "setting": "[17]", "result": "significant cleavage of GSDMD"}, {"measurement": "additional LDH release / cytotoxicity", "setting": "[18]", "result": "induce additional cytotoxicity"}, {"measurement": "serum CXCL1/KC increase", "setting": "[19]", "result": "no increase"}, {"measurement": "serum G-CSF increase", "setting": "[19]", "result": "no increase"}, {"measurement": "inhibition of SCPEP1 (previously unknown target)", "setting": "[20]", "result": "inhibited"}, {"measurement": "increase of intracellular pro-IL-1β levels", "setting": "[21]", "result": "~ 2 fold"}]}
{"compound": "N#C[C@@H]1CCCN1C(=O)CNC12CC3CC(CC(O)(C3)C1)C2", "note": "[vildagliptin]", "values": [{"measurement": "IC50", "setting": "[3]; Homo sapiens, THP-1, 48 h", "result": "2500 to 18700", "unit": "nM"}]}
{"compound": "1G244", "values": [{"measurement": "IC50", "setting": "[22]", "result": 21500, "unit": "nM"}, {"measurement": "sensitivity of cells to compound (LDH)", "setting": "[7]", "result": "resistant"}, {"measurement": "cell killing (CellTiter-Glo)", "setting": "[23]", "result": "kills"}, {"measurement": "LDH release", "setting": "[1]", "result": "induced similar LDH release"}, {"measurement": "inhibition of DPP4", "setting": "[8]", "result": "does not inhibit"}, {"measurement": "IC50", "setting": "[24]", "result": 14, "unit": "nM"}, {"measurement": "inhibition of DPP7", "setting": "[12]", "result": "does not inhibit"}, {"measurement": "cell killing (CellTiter-Glo)", "setting": "[25]", "result": "kills"}, {"measurement": "LDH release", "setting": "[2]", "result": "induced similar LDH release"}, {"measurement": "cell death", "setting": "[26]", "result": "induces cell death"}, {"measurement": "additional LDH increase", "setting": "[13]", "result": "no additional LDH increase"}, {"measurement": "toxic effects after injection", "setting": "[27]; 30 mg/kg", "result": "startle reflex, convulsions and cyanosis"}, {"measurement": "concentrations achieved in animals", "setting": "[27]", "result": "> 10", "unit": "µM"}, {"measurement": "toxic effects after injection", "setting": "[27]; ≥60 mg/kg", "result": "immediate death"}, {"measurement": "IC50", "setting": "[28]", "result": 53, "unit": "nM"}, {"measurement": "cell death (CellTiter-Glo)", "setting": "[29]", "result": "killed"}, {"measurement": "cell killing", "setting": "[16]", "result": "kills"}, {"measurement": "caspase-1-independent cell death", "setting": "[16]; mouse RAW 264.7 cells, 10 μM", "result": "small amounts of caspase-1-independent cell death"}, {"measurement": "IC50", "setting": "[3]; control THP-1, 48 h", "result": 2700, "unit": "nM"}, {"measurement": "GSDMD cleavage", "setting": "[17]", "result": "significant cleavage of GSDMD"}, {"measurement": "additional LDH release / cytotoxicity", "setting": "[18]; DPP9 knockout THP-1, Val-boroPro 2 μM, 1G244 10 μM, 24 h", "result": "induced additional LDH release"}, {"measurement": "form of cell death induced", "setting": "[30]", "result": "induced a form of cell death that appeared to be apoptosis"}]}
